pIC50: −log10 of the molar value.

T1 sequence (Q8NER1 whole entry): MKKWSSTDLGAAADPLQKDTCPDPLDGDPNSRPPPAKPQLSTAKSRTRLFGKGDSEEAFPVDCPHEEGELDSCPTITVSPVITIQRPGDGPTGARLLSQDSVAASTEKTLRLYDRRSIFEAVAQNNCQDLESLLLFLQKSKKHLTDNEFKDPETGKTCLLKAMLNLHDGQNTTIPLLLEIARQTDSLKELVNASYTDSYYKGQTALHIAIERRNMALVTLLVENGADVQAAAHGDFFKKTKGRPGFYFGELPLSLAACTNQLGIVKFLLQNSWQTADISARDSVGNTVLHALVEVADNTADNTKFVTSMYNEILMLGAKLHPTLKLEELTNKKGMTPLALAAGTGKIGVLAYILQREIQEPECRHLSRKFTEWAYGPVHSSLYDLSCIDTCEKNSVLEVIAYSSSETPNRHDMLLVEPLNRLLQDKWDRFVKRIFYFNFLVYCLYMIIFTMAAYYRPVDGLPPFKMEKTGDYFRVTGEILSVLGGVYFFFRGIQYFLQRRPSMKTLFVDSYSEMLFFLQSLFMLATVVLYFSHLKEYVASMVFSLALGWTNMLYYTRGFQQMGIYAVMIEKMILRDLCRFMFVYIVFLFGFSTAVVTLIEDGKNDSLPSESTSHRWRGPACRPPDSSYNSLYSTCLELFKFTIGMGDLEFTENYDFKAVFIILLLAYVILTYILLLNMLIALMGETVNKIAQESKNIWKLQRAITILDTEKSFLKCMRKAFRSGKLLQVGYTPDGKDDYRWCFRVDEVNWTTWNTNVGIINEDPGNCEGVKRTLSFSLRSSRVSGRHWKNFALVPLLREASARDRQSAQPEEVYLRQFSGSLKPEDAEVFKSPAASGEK

The first experiment has as its target T1, human capsaicin receptor (Homo sapiens, UniProt Q8NER1).
T1 construct: transfected with the pBK-CMV expression construct encoding the full length human capsaicin receptor; expressed in transfected cells; host or cells: HEK293, stably transfected clonal lines, plasmid pBK-CMV
Nature of the experiment: Calcium mobilization assay, determination of antagonist activity (Example 6). Type of experiment: cell-based. As to conditions: concentration giving 50% decrease in the fluorescence response of cells expressing human capsaicin receptor exposed to capsaicin. The method, then: A cDNA encoding full length human capsaicin receptor (SEQ ID NO:1, 2 or 3 of U.S. Pat. No. 6,482,611) was subcloned in the plasmid pBK-CMV (Stratagene, La Jolla, Calif.) for recombinant expression in mammalian cells.
Human embryonic kidney (HEK293) cells were transfected with the pBK-CMV expression construct encoding the full length human capsaicin receptor using standard methods. The transfected cells were selected for two weeks in media containing G418 (400 μg/ml) to obtain a pool of stably transfected cells. Independent clones were isolated from this pool by limiting dilution to obtain clonal stable cell lines for use in subsequent experiments.
(§1) Cells transfected with expression plasmids (as described in Example 4) and thereby expressing human capsaicin receptor are seeded and grown to 70-90% confluency in FALCON black-walled, clear-bottomed 96-well plates (#3904, BECTON-DICKINSON, Franklin Lakes, N.J.). The culture medium is emptied from the 96 well plates and FLUO-3 AM calcium sensitive dye (Molecular Probes, Eugene, Oreg.) is added to each well (dye solution: 1 mg FLUO-3 AM, 440 μL DMSO and 440 μl 20% pluronic acid in DMSO, diluted 1:250 in Krebs-Ringer HEPES (KRH) buffer (25 mM HEPES, 5 mM KCl, 0.96 mM NaH2PO4, 1 mM MgSO4, 2 mM CaCl2, 5 mM glucose, 1 mM probenecid, pH 7.4), 50 μl diluted solution per well). Plates are covered with aluminum foil and incubated at 37° C. for 1-2 hours in an environment containing 5% CO2. After the incubation, the dye is emptied from the plates, and the cells are washed once with KRH buffer, and resuspended in KRH buffer.
To measure the ability of a test compound to agonize or antagonize a calcium mobilization response in cells expressing capsaicin receptors to capsaicin or other vanilloid agonist, the EC50 of the agonist capsaicin is first determined. An additional 20 μl of KRH buffer and 1 μl DMSO is added to each well of cells, prepared as described above. 100 μl capsaicin in KRH buffer is automatically transferred by the FLIPR instrument to each well. Capsaicin-induced calcium mobilization is monitored using either FLUOROSKAN ASCENT (Labsystems; Franklin, Mass.) or FLIPR (fluorometric imaging plate reader system; Molecular Devices, Sunnyvale, Calif.) instruments. Data obtained between 30 and 60 seconds after agonist application are used to generate an 8-point concentration response curve, with final capsaicin concentrations of 1 nM to 3 μM. […] software (Synergy Software, Reading, Pa.) is used to fit the data to the equation: y=a*(1/(1+(b/x)^c)) to determine the 50% excitatory concentration (EC50) for the response. In this equation, y is the maximum fluorescence signal, x is the concentration of the agonist or antagonist (in this case, capsaicin), a is the Emax, b corresponds to the EC50 value and c is the Hill coefficient. Determination Agonist Activity
Test compounds are dissolved in DMSO, diluted in 20 μl KRH buffer so that the final concentration of test compounds in the assay well is between 1 μM and 5 μM, and added to cells prepared as described above. The 96 well plates containing prepared cells and test compounds are incubated in the dark, at room temperature for 0.5 to 6 hours. It is important that the incubation not continue beyond 6 hours. Just prior to determining the fluorescence response, 100 μl capsaicin in KRH buffer at twice the EC50 concentration determined as described above is automatically added by the FLIPR instrument to each well of the 96 well plate for a final sample volume of 200 μl and a final capsaicin concentration equal to the EC50. The final concentration of test compounds in the assay wells is between 1 μM and 5 μM.
For orientation: Calcium flux is commonly read through the fluorescence of an indicator in the cells.
Take `CCCCNc1nc(Nc2ccc(C(F)(F)F)cc2)nc(OCc2ccccc2C(F)(F)F)n1` [Compound 62, N-Butyl-6-(2-trifluoromethyl-benzyloxy)-N′-(4-trifluoromethyl-phenyl)-[1,3,5]triazine-2,4-diamine]: the negative-log IC50 (pIC50) (as a rule, −log10 of the IC50, conventionally taken in molar units) is no less than 6.00.

Take `FC(F)(F)c1ccc(Nc2nc(NC3CCC3)nc(OCc3ccccc3C(F)(F)F)n2)cc1` [Compound 63, N-Cyclobutyl-6-(2-trifluoromethyl-benzyloxy)-N′-(4-trifluoromethyl-phenyl)-[1,3,5]triazine-2,4-diamine]: the negative-log IC50 (pIC50) was no less than 6.00.

Turning to `FC(F)(F)c1ccc(Nc2nc(NC3CCCCC3)nc(OCc3ccccc3C(F)(F)F)n2)cc1` [Compound 64, N-Cyclohexyl-6-(2-trifluoromethyl-benzyloxy)-N′-(4-trifluoromethyl-phenyl)-[1,3,5]triazine-2,4-diamine], the pIC50 was no less than 6.00.

On to `FC(F)(F)c1ccc(Nc2nc(NC3CCCC3)nc(OCc3ccccc3C(F)(F)F)n2)cc1` [Compound 65, N-Cyclopentyl-6-(2-trifluoromethyl-benzyloxy)-N′-(4-trifluoromethyl-phenyl)-[1,3,5]triazine-2,4-diamine], for which the pIC50 is no less than 6.00.

Consider `CC(C)CNc1nc(Nc2ccc(C(F)(F)F)cc2)nc(OCc2ccccc2C(F)(F)F)n1` [Compound 66, N-Isobutyl-6-(2-trifluoromethyl-benzyloxy)-N′-(4-trifluoromethyl-phenyl)-[1,3,5]triazine-2,4-diamine], for which the negative logarithm of the IC50 (pIC50) is no less than 6.00.

Consider `CC(C)Nc1nc(Nc2ccc(C(F)(F)F)cc2)nc(OCc2ccccc2C(F)(F)F)n1` [Compound 67, N-Isopropyl-6-(2-trifluoromethyl-benzyloxy)-N′-(4-trifluoromethyl-phenyl)-[1,3,5]triazine-2,4-diamine], for which the pIC50 was no less than 6.00.

Regarding `CC(C)(C)Nc1nc(Nc2ccc(C(F)(F)F)cc2)nc(OCc2ccccc2C(F)(F)F)n1` [Compound 68, N-tert-Butyl-6-(2-trifluoromethyl-benzyloxy)-N′-(4-trifluoromethyl-phenyl)-[1,3,5]triazine-2,4-diamine], the negative logarithm of the IC50 (pIC50) was no less than 6.00.

The target in another experiment is T1, human capsaicin receptor. Description: Calcium mobilization assay, capsaicin agonist response (Example 6). Type of experiment: cell-based. As to conditions: capsaicin positive control, cells expressing human capsaicin receptor; read-out: approximate EC90 concentration. As to the method:
as §1, with “Plates are covered with aluminum foil and incubated at 37° C. for 1-2 hours in an environment containing 5% CO2. After the incubation, the dye is emptied from the plates, and the cells are washed once with KRH buffer, and resuspended in KRH buffer.” left out
To measure the ability of a test compound to agonize or antagonize a calcium mobilization response in cells expressing capsaicin receptors to capsaicin or other vanilloid agonist, the EC50 of the agonist capsaicin is first determined. […] Capsaicin-induced calcium mobilization is monitored using either FLUOROSKAN ASCENT (Labsystems; Franklin, Mass.) or FLIPR (fluorometric imaging plate reader system; Molecular Devices, Sunnyvale, Calif.) instruments. […] In this equation, y is the maximum fluorescence signal, x is the concentration of the agonist or antagonist (in this case, capsaicin), a is the Emax, b corresponds to the EC50 value and c is the Hill coefficient. […]
Turning to `COc1cc(CNC(=O)CCCC/C=C/C(C)C)ccc1O` [capsaicin], the EC90 is roughly 100 nM.

These data come from US20070161637A1, “Substituted pyridin-2-ylamine analogues” (Neurogen Corporation, priority 2003, published 2007).
